Reference: ChEMBL document CHEMBL1201862, “PubChem BioAssay data set” (2004)
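1) Cells in 96-well plates. 2) Compound, 48 h, 5 concentrations. 3) Linear interpolation between surrounding doses. 4) Unreached endpoint = highest concentration. At the GI50, growth is halved.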 Calls of active or inactive are those of the source. No stated cut-off is given here; in the data, active = GI50 up to about 1.1 µM and inactive = higher.

Tests used:
Experiment in all cases: NCI anticancer screen, dose series, 48 h
SR = system: SR
Hs-578T = system: Hs-578T
MDA-MB-231 = system: MDA-MB-231
MDA-MB-435 = system: MDA-MB-435
BT-549 = system: BT-549
SK-MEL-28 = system: SK-MEL-28
NCI-H522 = system: NCI-H522
SF-268 = system: SF-268
U-251 = system: U-251
ACHN = system: ACHN
HOP-62 = system: HOP-62
NCI-H23 = system: NCI-H23
OVCAR-3 = system: OVCAR-3
CAKI-1 = system: CAKI-1
NCI/ADR-RES = system: NCI/ADR-RES
SNB-75 = system: SNB-75
MDA-N = system: MDA-N
KM12 = system: KM12
M14 = system: M14

Structure (SMILES)	GI50 (SR)	GI50 (Hs-578T)	GI50 (MDA-MB-231)	GI50 (MDA-MB-435)	GI50 (BT-549)	GI50 (SK-MEL-28)	GI50 (NCI-H522)	GI50 (SF-268)	GI50 (U-251)	GI50 (ACHN)	GI50 (HOP-62)	GI50 (NCI-H23)	GI50 (OVCAR-3)	GI50 (CAKI-1)	GI50 (NCI/ADR-RES)	GI50 (SNB-75)	GI50 (MDA-N)	GI50 (KM12)	GI50 (M14)
COC1C(O)CC(OC2C(C)OC(Oc3cc(O)c4c(O)c5c(cc4c3)C[C@@H]([C@H](OC)C(=O)[C@@H](O)[C@@H](C)O)[C@H](OC3CC(OC4CC(OC6CC(C)(O)C(O)C(C)O6)C(O)C(C)O4)C(O)C(C)O3)C5=O)CC2OC(C)=O)OC1C (some centres undefined)	63.5 µM (inactive)	20.3 µM (inactive)	91.6 µM (inactive)	34 µM (inactive)	> 100 µM (inactive)	32.2 µM (inactive)	39.1 µM (inactive)	97.1 µM (inactive)	48.1 µM (inactive)	56.1 µM (inactive)	> 100 µM (inactive)	88.1 µM (inactive)	> 100 µM (inactive)	> 100 µM (inactive)	> 100 µM (inactive)	> 100 µM (inactive)	97.7 µM (inactive)	88.1 µM (inactive)	
Clc1cccc(/N=C/C=C/Nc2cccc(Cl)c2)c1	24.2 µM (inactive)	29.8 µM (inactive)	15.7 µM (inactive)	15.6 µM (inactive)	16.1 µM (inactive)	16.1 µM (inactive)	14.8 µM (inactive)	> 10 µM (inactive)	16.5 µM (inactive)	> 10 µM (inactive)	16.8 µM (inactive)	21.3 µM (inactive)	18.3 µM (inactive)	26.1 µM (inactive)	16.9 µM (inactive)	> 10 µM (inactive)	13.9 µM (inactive)	14.1 µM (inactive)	
CC(=O)n1nc(-c2ccc3ccccc3c2)nc1C	> 100 µM (inactive)	39.4 µM (inactive)	> 100 µM (inactive)	33.7 µM (inactive)	48.6 µM (inactive)		> 100 µM (inactive)	> 100 µM (inactive)		73.1 µM (inactive)	39.5 µM (inactive)	> 10 µM (inactive)	> 100 µM (inactive)	53.7 µM (inactive)	> 100 µM (inactive)	70.3 µM (inactive)	70.8 µM (inactive)	23.9 µM (inactive)	> 100 µM (inactive)
C[n+]1c(-c2ccc(/C=N\N3CCN(/N=C/c4ccc(-c5cn6ccccc6[n+]5C)cc4)CC3)cc2)cn2ccccc21	30.7 µM (inactive)	29.3 µM (inactive)	27.3 µM (inactive)	34.5 µM (inactive)	35 µM (inactive)		83.9 µM (inactive)	48.2 µM (inactive)	27.1 µM (inactive)	45.1 µM (inactive)		27.8 µM (inactive)	> 100 µM (inactive)	20.5 µM (inactive)	> 100 µM (inactive)	39.4 µM (inactive)	36.2 µM (inactive)	55.3 µM (inactive)	48.4 µM (inactive)
N#Cc1c(-c2ccccc2)c(C#N)c(=S)n(C2OC(CO)C(O)C(O)C2O)c1O (centres undefined)	> 100 µM (inactive)	> 100 µM (inactive)	> 100 µM (inactive)	> 100 µM (inactive)	> 100 µM (inactive)	> 100 µM (inactive)	> 100 µM (inactive)	> 100 µM (inactive)		> 100 µM (inactive)	> 100 µM (inactive)	> 100 µM (inactive)	> 100 µM (inactive)	> 100 µM (inactive)	> 100 µM (inactive)	> 100 µM (inactive)	> 100 µM (inactive)	> 100 µM (inactive)	> 100 µM (inactive)
CC(=N\N)/C(C)=N/N=C(C)/C(C)=N/N=C(C)/C(C)=N/N=C(C)/C(C)=N/N	0.248 µM (active)	> 100 µM (inactive)	> 100 µM (inactive)	> 100 µM (inactive)	97.1 µM (inactive)	> 100 µM (inactive)	> 100 µM (inactive)	> 100 µM (inactive)	> 100 µM (inactive)		> 100 µM (inactive)	66.8 µM (inactive)	> 100 µM (inactive)	> 100 µM (inactive)	> 100 µM (inactive)	> 100 µM (inactive)	> 100 µM (inactive)	> 100 µM (inactive)	> 100 µM (inactive)
CC#CC(O)(C(=O)OC1CC2CCC(C1)N2C)C1CCCC1 (centres undefined)	> 100 µM (inactive)	> 100 µM (inactive)	> 100 µM (inactive)	> 100 µM (inactive)	> 100 µM (inactive)	> 100 µM (inactive)		> 100 µM (inactive)	> 100 µM (inactive)	> 100 µM (inactive)	> 100 µM (inactive)	> 100 µM (inactive)	> 100 µM (inactive)	> 100 µM (inactive)	> 100 µM (inactive)	> 100 µM (inactive)	> 100 µM (inactive)	> 100 µM (inactive)	> 100 µM (inactive)
